For twelve compounds, IC50 results are on record in ChEMBL document CHEMBL1135352, “8-Anilinoimidazo[4,5-g]quinoline-7-carbonitriles as Src kinase inhibitors” (Bioorg Med Chem Lett, 2002).

pIC50: −log10 of the molar value. Bounds are passed on as bounds.

Chain of Proto-oncogene tyrosine-protein kinase Src (Rattus norvegicus, UniProt Q9WUD9) (Q9WUD9 2-536 limits assumed): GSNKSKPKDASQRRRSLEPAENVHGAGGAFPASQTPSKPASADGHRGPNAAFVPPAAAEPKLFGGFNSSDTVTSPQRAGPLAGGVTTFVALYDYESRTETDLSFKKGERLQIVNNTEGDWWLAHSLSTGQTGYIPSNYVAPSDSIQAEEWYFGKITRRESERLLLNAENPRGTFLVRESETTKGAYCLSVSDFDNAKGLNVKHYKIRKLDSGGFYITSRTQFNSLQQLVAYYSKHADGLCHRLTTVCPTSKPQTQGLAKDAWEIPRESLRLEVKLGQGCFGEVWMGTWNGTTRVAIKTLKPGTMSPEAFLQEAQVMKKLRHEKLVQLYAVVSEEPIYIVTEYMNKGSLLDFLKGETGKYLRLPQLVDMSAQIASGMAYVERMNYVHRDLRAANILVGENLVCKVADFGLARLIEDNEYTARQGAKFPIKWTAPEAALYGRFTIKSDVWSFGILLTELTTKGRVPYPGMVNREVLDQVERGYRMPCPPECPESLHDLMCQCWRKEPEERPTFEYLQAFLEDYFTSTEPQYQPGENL

For the first test, the target named is Proto-oncogene tyrosine-protein kinase Src (Homo sapiens, UniProt P12931). Nature of the test: Inhibition of Src protein tyrosine kinase activity.
Chain of Proto-oncogene tyrosine-protein kinase Src (Homo sapiens, UniProt P12931) (P12931 2-536 limits assumed): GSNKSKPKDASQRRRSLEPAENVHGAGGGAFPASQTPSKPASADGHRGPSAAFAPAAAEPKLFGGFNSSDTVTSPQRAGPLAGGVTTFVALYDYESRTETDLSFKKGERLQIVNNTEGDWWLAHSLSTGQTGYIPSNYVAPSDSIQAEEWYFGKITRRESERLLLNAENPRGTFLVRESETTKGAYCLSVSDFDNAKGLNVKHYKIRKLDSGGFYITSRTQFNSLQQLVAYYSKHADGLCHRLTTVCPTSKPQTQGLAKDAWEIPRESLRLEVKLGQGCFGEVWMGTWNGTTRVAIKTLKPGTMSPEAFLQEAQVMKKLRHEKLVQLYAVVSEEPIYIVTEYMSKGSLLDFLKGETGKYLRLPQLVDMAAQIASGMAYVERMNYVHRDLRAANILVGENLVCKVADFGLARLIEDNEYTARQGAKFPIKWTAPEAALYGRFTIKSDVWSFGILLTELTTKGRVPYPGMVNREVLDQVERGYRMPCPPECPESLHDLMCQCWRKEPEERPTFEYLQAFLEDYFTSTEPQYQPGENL
What is called pIC50 is the IC50 on a negative log10 scale, so that one unit is a factor of ten. With `COc1cc(Nc2c(C#N)cnc3cc4c(cc23)ncn4CCN2CCOCC2)c(Br)cc1Cl`, the pIC50 is 8.05.
Compound `COc1ccc(C)c(Nc2c(C#N)cnc3cc4[nH]c(NCCN5CCOCC5)nc4cc23)c1` had a pIC50 of 7.17.
`COc1cc(Nc2c(C#N)cnc3cc4c(cc23)ncn4CCN2CCOCC2)c(C)cc1Cl` showed a negative logarithm of the IC50 (pIC50) of 7.54. This pIC50 is 0.37 log units higher than that of the compound before.
Consider `COc1cc(Nc2c(C#N)cnc3cc4[nH]c(CN5CCOCC5)nc4cc23)cc(OC)c1OC`, for which the negative-log IC50 (pIC50) was 6.21.
Compound `COc1ccc(Cl)c(Nc2c(C#N)cnc3cc4c(cc23)ncn4CCN2CCOCC2)c1` showed a negative-log IC50 (pIC50) of 7.37.
Still for that read-out and setting: the value for `COc1ccc(Cl)c(Nc2c(C#N)cnc3cc4[nH]cnc4cc23)c1` was 7.52; that for `COc1ccc(C)c(Nc2c(C#N)cnc3cc4c(cc23)ncn4CCN2CCOCC2)c1` was 6.92; that for `COc1cc(Nc2c(C#N)cnc3cc4nc(NCCN5CCOCC5)[nH]c4cc23)cc(OC)c1OC` was 6.74.
On the same count and under the same terms, the value for `COc1cc(Nc2c(C#N)cnc3cc4[nH]cnc4cc23)cc(OC)c1OC` was 6.48; that for `COc1cc(Nc2c(C#N)cnc3cc4[nH]cnc4cc23)c(Br)cc1Cl` was 7.80; that for `N#Cc1cnc2cc3[nH]cnc3cc2c1Nc1ccc(Cl)cc1Br` was 7.12.
Same read-out and setting: the value for `COc1cc(Nc2c(C#N)cnc3cc4c(cc23)ncn4CCN2CCOCC2)cc(OC)c1OC` was 6.70.

Target in the next test: not listed separately
The experiment in a line: Inhibition of Dual specificity mitogen-activated protein kinase kinase MEK.
In turn, `COc1cc(Nc2c(C#N)cnc3cc4c(cc23)ncn4CCN2CCOCC2)c(Br)cc1Cl` showed a pIC50 of under 6.00.
The same measure, in the same setting: the figure for `COc1ccc(C)c(Nc2c(C#N)cnc3cc4[nH]c(NCCN5CCOCC5)nc4cc23)c1` is under 6.00.
On the same count and under the same terms, the figure for `COc1cc(Nc2c(C#N)cnc3cc4c(cc23)ncn4CCN2CCOCC2)c(C)cc1Cl` is under 6.00; for `COc1cc(Nc2c(C#N)cnc3cc4[nH]c(CN5CCOCC5)nc4cc23)cc(OC)c1OC` it is under 6.00; for `COc1ccc(Cl)c(Nc2c(C#N)cnc3cc4c(cc23)ncn4CCN2CCOCC2)c1` it is under 6.00.
Take `COc1ccc(Cl)c(Nc2c(C#N)cnc3cc4[nH]cnc4cc23)c1`: the pIC50 is under 6.00.
Still for that read-out and setting: the value for `COc1ccc(C)c(Nc2c(C#N)cnc3cc4c(cc23)ncn4CCN2CCOCC2)c1` was under 6.00; that for `COc1cc(Nc2c(C#N)cnc3cc4[nH]cnc4cc23)cc(OC)c1OC` was under 6.00; that for `COc1cc(Nc2c(C#N)cnc3cc4[nH]cnc4cc23)c(Br)cc1Cl` was under 6.00.
On the same count and under the same terms, the value for `N#Cc1cnc2cc3[nH]cnc3cc2c1Nc1ccc(Cl)cc1Br` was under 6.00.
On the same count and under the same terms, the figure for `COc1cc(Nc2c(C#N)cnc3cc4c(cc23)ncn4CCN2CCOCC2)cc(OC)c1OC` is under 6.00.

The next test has as its target Proto-oncogene tyrosine-protein kinase Src (Rattus norvegicus, UniProt Q9WUD9). Nature of the test: Inhibition of src kinase activity in Src transformed rat fibroblasts. The test is classed as functional.
Regarding `COc1cc(Nc2c(C#N)cnc3cc4c(cc23)ncn4CCN2CCOCC2)c(Br)cc1Cl`, the pIC50 is 6.17.
The same measure, in the same setting: the value for `COc1ccc(C)c(Nc2c(C#N)cnc3cc4[nH]c(NCCN5CCOCC5)nc4cc23)c1` was under 5.00; that for `COc1cc(Nc2c(C#N)cnc3cc4c(cc23)ncn4CCN2CCOCC2)c(C)cc1Cl` was 5.41.
The same measure, in the same setting: the figure for `COc1cc(Nc2c(C#N)cnc3cc4[nH]c(CN5CCOCC5)nc4cc23)cc(OC)c1OC` is under 5.00; for `COc1ccc(Cl)c(Nc2c(C#N)cnc3cc4c(cc23)ncn4CCN2CCOCC2)c1` it is 5.92; for `COc1ccc(Cl)c(Nc2c(C#N)cnc3cc4[nH]cnc4cc23)c1` it is 4.98.
`COc1ccc(C)c(Nc2c(C#N)cnc3cc4c(cc23)ncn4CCN2CCOCC2)c1` gave a negative-log IC50 (pIC50) of 5.48. This pIC50 is 0.50 log units higher than that of the compound before.
Same read-out and setting: the value for `COc1cc(Nc2c(C#N)cnc3cc4nc(NCCN5CCOCC5)[nH]c4cc23)cc(OC)c1OC` was under 5.00; that for `COc1cc(Nc2c(C#N)cnc3cc4[nH]cnc4cc23)cc(OC)c1OC` was under 5.00.
On the same count and under the same terms, the figure for `COc1cc(Nc2c(C#N)cnc3cc4[nH]cnc4cc23)c(Br)cc1Cl` is 5.55.
In the case of `N#Cc1cnc2cc3[nH]cnc3cc2c1Nc1ccc(Cl)cc1Br`, the negative logarithm of the IC50 (pIC50) is 5.00.
Still for that read-out and setting: the figure for `COc1cc(Nc2c(C#N)cnc3cc4c(cc23)ncn4CCN2CCOCC2)cc(OC)c1OC` is under 5.00.

The next test deals with Epidermal growth factor receptor (Homo sapiens, UniProt P00533). Nature of the test: Inhibition of Epidermal growth factor receptor kinase.
Chain of Epidermal growth factor receptor (P00533 whole entry): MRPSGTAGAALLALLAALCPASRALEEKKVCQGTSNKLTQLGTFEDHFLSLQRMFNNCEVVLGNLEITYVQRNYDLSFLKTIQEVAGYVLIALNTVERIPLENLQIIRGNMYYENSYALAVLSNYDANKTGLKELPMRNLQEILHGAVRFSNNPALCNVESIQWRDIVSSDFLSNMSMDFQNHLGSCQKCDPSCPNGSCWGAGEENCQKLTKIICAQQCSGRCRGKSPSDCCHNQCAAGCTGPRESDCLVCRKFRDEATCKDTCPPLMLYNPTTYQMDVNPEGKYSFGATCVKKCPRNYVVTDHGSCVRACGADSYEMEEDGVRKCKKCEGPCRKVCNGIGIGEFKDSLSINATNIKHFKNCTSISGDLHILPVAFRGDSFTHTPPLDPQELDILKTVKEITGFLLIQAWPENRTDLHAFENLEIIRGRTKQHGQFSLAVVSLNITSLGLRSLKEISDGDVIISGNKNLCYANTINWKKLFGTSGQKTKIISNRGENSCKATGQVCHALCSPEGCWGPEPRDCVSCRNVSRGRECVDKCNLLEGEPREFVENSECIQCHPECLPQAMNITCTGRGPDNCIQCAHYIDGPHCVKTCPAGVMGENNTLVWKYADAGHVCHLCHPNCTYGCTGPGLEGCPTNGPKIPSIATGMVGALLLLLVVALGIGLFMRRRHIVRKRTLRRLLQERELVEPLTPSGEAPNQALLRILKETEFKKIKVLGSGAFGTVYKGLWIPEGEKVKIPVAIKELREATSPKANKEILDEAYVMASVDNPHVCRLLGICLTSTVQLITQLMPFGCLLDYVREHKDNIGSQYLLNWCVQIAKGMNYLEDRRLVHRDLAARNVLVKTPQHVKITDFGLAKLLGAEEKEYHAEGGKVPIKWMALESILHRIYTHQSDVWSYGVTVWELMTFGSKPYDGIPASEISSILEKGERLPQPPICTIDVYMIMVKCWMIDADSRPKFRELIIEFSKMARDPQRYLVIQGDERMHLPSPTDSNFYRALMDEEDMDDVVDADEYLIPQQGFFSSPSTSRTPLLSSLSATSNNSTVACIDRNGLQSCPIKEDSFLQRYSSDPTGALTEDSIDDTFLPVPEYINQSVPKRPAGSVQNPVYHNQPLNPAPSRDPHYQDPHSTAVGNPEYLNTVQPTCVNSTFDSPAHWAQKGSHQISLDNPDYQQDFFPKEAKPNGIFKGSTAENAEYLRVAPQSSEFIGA
Regarding `COc1cc(Nc2c(C#N)cnc3cc4c(cc23)ncn4CCN2CCOCC2)c(Br)cc1Cl`, the pIC50 was under 6.00.
`COc1ccc(C)c(Nc2c(C#N)cnc3cc4[nH]c(NCCN5CCOCC5)nc4cc23)c1` gave a negative logarithm of the IC50 (pIC50) of under 6.00.
The same measure, in the same setting: the value for `COc1cc(Nc2c(C#N)cnc3cc4c(cc23)ncn4CCN2CCOCC2)c(C)cc1Cl` was under 6.00; that for `COc1cc(Nc2c(C#N)cnc3cc4[nH]c(CN5CCOCC5)nc4cc23)cc(OC)c1OC` was under 6.00.
`COc1ccc(Cl)c(Nc2c(C#N)cnc3cc4c(cc23)ncn4CCN2CCOCC2)c1` showed a pIC50 of under 6.00.
Still for that read-out and setting: the figure for `COc1ccc(Cl)c(Nc2c(C#N)cnc3cc4[nH]cnc4cc23)c1` is under 6.00.
In the case of `COc1ccc(C)c(Nc2c(C#N)cnc3cc4c(cc23)ncn4CCN2CCOCC2)c1`, the pIC50 was under 6.00.
Still for that read-out and setting: the figure for `COc1cc(Nc2c(C#N)cnc3cc4[nH]cnc4cc23)cc(OC)c1OC` is under 6.00.
On the same count and under the same terms, the value for `COc1cc(Nc2c(C#N)cnc3cc4[nH]cnc4cc23)c(Br)cc1Cl` was under 6.00; that for `N#Cc1cnc2cc3[nH]cnc3cc2c1Nc1ccc(Cl)cc1Br` was under 6.00; that for `COc1cc(Nc2c(C#N)cnc3cc4c(cc23)ncn4CCN2CCOCC2)cc(OC)c1OC` was under 6.00.

The target in the next test is Receptor tyrosine-protein kinase erbB-2 (Homo sapiens, UniProt P04626). The experiment in a line: Inhibition of ERBB2 receptor kinase.
Chain of Receptor tyrosine-protein kinase erbB-2 (P04626 whole entry): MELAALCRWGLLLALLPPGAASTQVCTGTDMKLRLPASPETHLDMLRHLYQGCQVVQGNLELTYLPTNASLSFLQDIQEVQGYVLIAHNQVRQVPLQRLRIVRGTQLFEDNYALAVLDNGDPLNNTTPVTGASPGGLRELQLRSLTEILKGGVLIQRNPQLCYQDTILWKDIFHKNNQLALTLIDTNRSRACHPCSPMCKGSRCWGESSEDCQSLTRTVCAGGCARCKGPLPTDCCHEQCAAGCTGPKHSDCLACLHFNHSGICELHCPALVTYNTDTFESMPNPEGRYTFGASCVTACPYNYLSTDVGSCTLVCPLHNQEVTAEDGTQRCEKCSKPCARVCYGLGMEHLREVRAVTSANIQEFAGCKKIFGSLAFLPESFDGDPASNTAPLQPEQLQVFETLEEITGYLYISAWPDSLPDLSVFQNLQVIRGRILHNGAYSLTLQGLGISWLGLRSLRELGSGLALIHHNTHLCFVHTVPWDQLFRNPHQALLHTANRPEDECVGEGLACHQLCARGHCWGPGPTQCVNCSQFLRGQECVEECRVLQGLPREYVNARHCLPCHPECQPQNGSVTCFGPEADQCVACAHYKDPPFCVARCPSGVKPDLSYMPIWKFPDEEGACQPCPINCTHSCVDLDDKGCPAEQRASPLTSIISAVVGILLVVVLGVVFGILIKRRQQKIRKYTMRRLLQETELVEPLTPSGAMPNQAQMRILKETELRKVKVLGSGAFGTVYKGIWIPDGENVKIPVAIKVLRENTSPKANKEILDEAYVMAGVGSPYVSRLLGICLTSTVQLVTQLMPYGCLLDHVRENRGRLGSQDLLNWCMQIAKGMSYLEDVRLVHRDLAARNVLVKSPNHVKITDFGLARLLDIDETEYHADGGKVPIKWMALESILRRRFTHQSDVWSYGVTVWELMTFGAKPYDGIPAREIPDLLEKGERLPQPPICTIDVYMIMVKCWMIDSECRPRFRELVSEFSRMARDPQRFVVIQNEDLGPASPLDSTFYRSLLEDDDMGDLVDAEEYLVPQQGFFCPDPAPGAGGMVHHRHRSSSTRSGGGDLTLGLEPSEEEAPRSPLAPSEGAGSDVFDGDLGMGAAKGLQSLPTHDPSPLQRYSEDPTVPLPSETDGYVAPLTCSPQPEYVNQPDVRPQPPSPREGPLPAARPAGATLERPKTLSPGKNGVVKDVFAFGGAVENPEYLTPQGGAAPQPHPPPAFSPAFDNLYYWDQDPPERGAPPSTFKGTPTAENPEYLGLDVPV
In turn, `COc1cc(Nc2c(C#N)cnc3cc4c(cc23)ncn4CCN2CCOCC2)c(Br)cc1Cl` had a negative logarithm of the IC50 (pIC50) of under 6.00.
On the same count and under the same terms, the figure for `COc1ccc(C)c(Nc2c(C#N)cnc3cc4[nH]c(NCCN5CCOCC5)nc4cc23)c1` is under 6.00; for `COc1cc(Nc2c(C#N)cnc3cc4c(cc23)ncn4CCN2CCOCC2)c(C)cc1Cl` it is under 6.00; for `COc1cc(Nc2c(C#N)cnc3cc4[nH]c(CN5CCOCC5)nc4cc23)cc(OC)c1OC` it is under 6.00.
Still for that read-out and setting: the value for `COc1ccc(Cl)c(Nc2c(C#N)cnc3cc4c(cc23)ncn4CCN2CCOCC2)c1` was under 6.00; that for `COc1ccc(Cl)c(Nc2c(C#N)cnc3cc4[nH]cnc4cc23)c1` was under 6.00.
Still for that read-out and setting: the figure for `COc1ccc(C)c(Nc2c(C#N)cnc3cc4c(cc23)ncn4CCN2CCOCC2)c1` is under 6.00.
In the case of `COc1cc(Nc2c(C#N)cnc3cc4nc(NCCN5CCOCC5)[nH]c4cc23)cc(OC)c1OC`, the pIC50 was under 6.00.
The same measure, in the same setting: the figure for `COc1cc(Nc2c(C#N)cnc3cc4[nH]cnc4cc23)cc(OC)c1OC` is under 6.00; for `COc1cc(Nc2c(C#N)cnc3cc4[nH]cnc4cc23)c(Br)cc1Cl` it is under 6.00; for `N#Cc1cnc2cc3[nH]cnc3cc2c1Nc1ccc(Cl)cc1Br` it is under 6.00.
The same measure, in the same setting: the value for `COc1cc(Nc2c(C#N)cnc3cc4c(cc23)ncn4CCN2CCOCC2)cc(OC)c1OC` was under 6.00.
